By IC50 is commonly meant the point on the concentration scale where inhibition reaches its midpoint.

For experiment [1], the system named is barnyard grass (Enchinochloa crusgalli) (ECHCG). As to the kind of experiment: post-emergent herbicidal test, barnyard grass. It counts as in vivo. Conditions: Echinochloa crus-galli, post-emergence, read-out: ECHCG percent control; for pest or weed control at 1000 g/ha: 1.0 kg/ha (*). From the text:
(§1) Seeds of several different weed species were planted in sandy loam soil containing only trace organic matter. Propagules were sown in individuals rows using one species per row across the width of an aluminum flat (19.5×9.5×6 cm). The grass weeds planted were green foxtail (Setaria viridis) ("SETVI"), wild oat (Avena fatua) ("AVEFA"), barnyard grass (Enchinochloa crusgalli) ("ECHCG"). Broadleaf weeds utilized were wild mustard (Brassica kaber), also known as Sinapis arvensis, ("SINAR"), velvetleaf (Abutilon theophrasti) ("ABUTH") and morningglory (Ipomoea spp.) ("IPOSS"). Additionally, yellow nutsedge (Cyperus esculentus) ("CYPES"), nutlets were sown. Seeding depths ranged from 1.0 to 1.5 cm and plant densities ranged from 3 to 25 plants per row depending on individual plant species.
(§2) The flats were placed into a greenhouse and watered overhead by sprinkling. The greenhouse environmental systems provided the plants with natural and artificial (via metal halide lamps) lighting to attain 14 hours of light per day. Day and night temperatures were maintained at 29° and 21° C. respectively. The plants were grown for 10 to 12 days (or to the appropriate growth stage) prior to compound application. Grasses were sprayed at a 3 to 4 leaf stage and broadleaves at a 1 to 2 leaf stage. Yellow nutsedge was 5 to 7 cm tall at application.
(§3) Solutions of the test compounds were prepared by weighing out 18.8 and 74.7 mg for 1 and 4 kg/ha applications respectively, of the test compound into a 60 ml wide-mouth bottle, then dissolving the compound in 14.0 ml of deionized water containing 0.5% v/v Tween 20' (polyoxyethylene sorbitan monolaurate emulsifier) as a surfactant. Additional solvents, not exceeding 2 ml (15% of spray volume), were used if needed to dissolve the compound.
(§4) The plants were sprayed inside an enclosed linear spray table with the nozzle set at 30.5 cm (12 inches) above the foliage.
(§5) Treated plants were then returned to a greenhouse and watered daily without wetting the foliage.
(§6) The degree of weed control was evaluated 17-21 days after application and recorded as percentage of control as compared to the growth of the same species in an untreated control flat of the same. Percent control is the total injury to the plants due to all factors including: inhibited emergence, stunting, malformation, chlorosis and other types of plant injury. The control ratings range from 0 to 100 percent, where 0% represents no effect with growth equal to the untreated control and where 100% represents complete kill.

In experiment [2] the test system is velvetleaf (Abutilon theophrasti) (ABUTH). As to the kind of experiment: post-emergent herbicidal test, velvetleaf. It counts as in vivo. Conditions: Abutilon theophrasti, post-emergence, read-out: ABUTH percent control; for pest or weed control at 1000 g/ha: 1.0 kg/ha (*).
Source text: as §1, §2, §3, §4, §5, §6

For experiment [3], the system named is wild mustard (Brassica kaber), also known as Sinapis arvensis (SINAR). Description: post-emergent herbicidal test, wild mustard. The experiment is classed as in vivo. Conditions: Brassica, post-emergence, read-out: SINAR percent control; for pest or weed control at 1000 g/ha: 1.0 kg/ha (*).
Source text: as §1, §2, §3, §4, §5, §6

Experiment [4] deals with yellow nutsedge (Cyperus esculentus) (CYPES). Description: post-emergent herbicidal test, yellow nutsedge. The experiment is classed as in vivo. Conditions: Cyperus, post-emergence, read-out: CYPES percent control; for pest or weed control at 1000 g/ha: 1.0 kg/ha (*).
Source text: as §1, §2, §3, §4, §5, §6

In experiment [5] the test system is farnesyl pyrophosphate synthase in daffodil chromoplasts. Description: inhibition of farnesyl pyrophosphate synthase in daffodil chromoplasts (14C-isopentenyl pyrophosphate incorporation). The following applies: unit inferred, IC50 values in nM, read-out: IC50. The experiment is classed as biochemical, Narcissus pseudonarcissus. The protocol:
The IC50 value may be determined as follows. Daffodil chromoplasts are diluted to a volume of 500 microliters in a buffer containing 0.5M sucrose, 3 mM MgCl2, 1 mM ethylenediaminetetraacetic acid, 20 mM N-tris[hydroxymethyl]methyl-2-aminoethanesulfonic acid, […] N-[2-hydroxyethyl]-piperazine-N'-[2-ethanesulfonic acid], 5 mM L-cysteine, 10 mM sodium fluoride, and 0.1% bovine serum albumin at pH 7.7. The inhibitor to be tested may be dissolved in water other suitable solvent and then added to the reaction mixture. The assay is started by the addition of ^14 C-labeled isopentenyl pyrophosphate (52 Ci/mol) to give a final concentration in the assay of about 3 micromolar. The mixture is incubated at 30° C. with gentle agitation for a period of about 30 min. The reaction may be stopped by the addition of 0.5 mL of saturated NaCl and 2 mL of n-butanol saturated with water. After thorough mixing, the turbid suspensions are centrifuged briefly to separate the layers, and 1 mL of the bright yellow upper butanol layer is added to 10 mL of a suitable scintillation fluid which gives a single phase. The butanol soluble radioactivity is then measured in a scintillation counter.
In addition, the problem of variable quenching differences among different experiments can be essentially eliminated by determining the incorporation of radioactivity relative to controls. Each set of experiments requires two control tubes identical to the test samples except that they contain no inhibitor. One of these is quenched immediately (TO sample) and one is quenched at the end of the normal incubation period (T100 sample).
For each concentration of inhibitor examined the % residual activity is determined from the formula [formula]
Tightly closed daffodil flowers (Narcissus pseudonarcissus) were allowed to open at room temperature. […] Coronae were placed in twice their weight of isolation buffer consisting of 67 mM potassium phosphate, 0.74M sucrose, 5 mM MgCl2, and 0.2% polyvinyl-pyrrolidone at pH 7.6 and were disrupted by 30 seconds of homogenization at high speed in a Waring-type blender. The mixture was filtered through several layers of cheesecloth and 2 layers of 100 micron nylon mesh, and the resulting filtrate was centrifuged at 1000×g for 10 minutes. The pellet was discarded and supernatant was centrifuged at 22,000×g for 20 minutes. […] This solution was centrifuged at 22,000×g for 20 minutes to give orange pellets which were suspended in a buffer of 100 mM tris(hydroxymethyl)aminomethane at pH 7.6 containing 5mM MgCl2 and 2 mM dithiothreitol (1 ml per 10 coronae). This solution was frozen in liquid nitrogen and then stored at -80° C.
Thawed daffodil chromoplasts (100-150 microliters) were diluted to a final volume of 500 microliters in a buffer containing 0.5M sucrose, 3 mM MgCl2, 1 mM ethylenediaminetetraacetic acid, 10 mM N-[2-hydroxyethyl]piperazine-N^1 -[2-ethanesulfonic acid], 5 mM L-cysteine, 10 mM sodium fluoride, and 0.1% bovine serum albumin at pH 7.7. The inhibitor to be tested was dissolved in water or other suitable solvent and was added to the reaction mixture. The assay was started by the addition of ^14 C-labeled isopentenyl pyrophosphate (52 Ci/mol) to give a final concentration in the assay of about 3 micromolar. The mixture was incubated at 30° C. with gentle agitation for a period of about 30 minutes. The reaction was stopped by the addition of 0.5 mL of saturated NaCl and 2 mL of n-butanol saturated with water. After thorough mixing, the turbid suspensions were centrifuged briefly to separate the layers, and 1 mL of the bright yellow upper butanol layer was added to 10 mL of a suitable scintillation fluid which gave a single phase. The butanol soluble radioactivity was then measured in a scintillation counter. Each set of experiments required two control tubes identical to the test samples except that they contain no inhibitor.

The test system of experiment [6] is green foxtail (Setaria viridis) (SETVI). As to the kind of experiment: post-emergent herbicidal test, green foxtail. It counts as in vivo. The following applies: Setaria viridis, post-emergence, read-out: SETVI percent control; for pest or weed control at 1000 g/ha: 1.0 kg/ha (*).
Source text: as §1, §2, §3, §4, §5, §6

Experiment [7] deals with wild oat (Avena fatua) (AVEFA). As to the kind of experiment: post-emergent herbicidal test, wild oat. The experiment is classed as in vivo. The following applies: Avena fatua, post-emergence, read-out: AVEFA percent control; for pest or weed control at 1000 g/ha: 1.0 kg/ha (*).
Source text: as §1, §2, §3, §4, §5, §6

For experiment [8], the system named is morningglory (Ipomoea spp.) (IPOSS). As to the kind of experiment: post-emergent herbicidal test, morningglory. The experiment is classed as in vivo. Conditions: Ipomoea, post-emergence, read-out: IPOSS percent control; for pest or weed control at 1000 g/ha: 1.0 kg/ha (*).
Source text: as §1, §2, §3, §4, §5, §6

[9] abbreviates: post-emergent, 4.0 kg/ha, 17-21 days after application.
[10] abbreviates: post-emergent, 17-21 days after application.

Like-named read-outs stand apart in the source and are kept apart here.

Turning to `CC(C)(C)NCC(P(=O)(O)O)P(=O)(O)O` [Compound 7], the pest or weed control at 4000 g/ha in experiment [1] (setting [9]) came to 50%; in experiment [2] (setting [9]) it was 5%; in experiment [3] (setting [9]), 100%; in experiment [4] (setting [9]) it was 15%; in experiment [6] (setting [9]) it was 60%; in experiment [7] (setting [9]), 85%. Moreover, the pest or weed control at 4000 g/ha in experiment [8] (setting [9]) was 60%. In addition, the IC50 in experiment [5] (Table I) is 238 nM; in experiment [5] (Table II), 239 nM.
Regarding `CN(C)CC(P(=O)(O)O)P(=O)(O)O` [Compound 8], the pest or weed control at 4000 g/ha in experiment [1] came out at 5%; in experiment [2], 0%; in experiment [3], 85%; in experiment [4], 0%; in experiment [6] it was 50%; in experiment [7] it was 5%. In experiment [8], the pest or weed control at 4000 g/ha was determined as 5%. Besides, the IC50 in experiment [5] (Table I) and in experiment [5] (Table II) was 2900 nM each time.
For the molecule `O=P(O)(O)C(O)(C1CCCCN1)P(=O)(O)O` (stereo not drawn) [Compound 9], the pest or weed control at 4000 g/ha in experiment [1] (setting [9]) stood at 30%; in experiment [2] (setting [9]), 30%; in experiment [3] (setting [9]) it was 100%; in experiment [4] (setting [9]), 15%; in experiment [6] (setting [9]), 100%; in experiment [7] (setting [9]), 60%. For the same molecule, in experiment [8] (setting [9]), the pest or weed control at 4000 g/ha stood at 30%. In addition, the IC50 in experiment [5] (Table I) and in experiment [5] (Table II) was 209 nM in each case.
With `CC1CCCCN1CC(P(=O)(O)O)P(=O)(O)O` (stereo not drawn) [Compound 10], the pest or weed control at 4000 g/ha in experiment [1] (setting [9]) stood at 85%; in experiment [2] (setting [9]), 50%; in experiment [3] (setting [9]) it was 100%; in experiment [4] (setting [9]), 5%; in experiment [6] (setting [9]), 85%; in experiment [7] (setting [9]) it was 100%. Also, the pest or weed control at 4000 g/ha in experiment [8] (setting [9]) came to 90%. The IC50 in experiment [5] (Table I) and in experiment [5] (Table II) was 83 nM each time.
As to `CC1CCC(C)N1CC(P(=O)(O)O)P(=O)(O)O` (stereo not drawn) [Compound 11], the pest or weed control at 4000 g/ha in experiment [1] (setting [9]) turned out to be 50%; in experiment [2] (setting [9]) it was 0%; in experiment [3] (setting [9]) it was 95%; in experiment [4] (setting [9]), 0%; in experiment [6] (setting [9]), 50%; in experiment [7] (setting [9]), 30%. Moreover, the pest or weed control at 4000 g/ha in experiment [8] (setting [9]) was 30%. The IC50 in experiment [5] (Table I) was 650 nM; in experiment [5] (Table II), 610 nM.
For the molecule `CC(C)CNCC(P(=O)(O)O)P(=O)(O)O` [Compound 12], the pest or weed control at 4000 g/ha in experiment [1] (setting [9]) stood at 98%; in experiment [2] (setting [9]) it was 98%; in experiment [3] (setting [9]), 100%; in experiment [4] (setting [9]), 70%; in experiment [6] (setting [9]) it was 98%; in experiment [7] (setting [9]), 100%. For the same molecule, the pest or weed control at 4000 g/ha in experiment [8] (setting [9]) was determined as 90%. The IC50 in experiment [5] (Table I) and in experiment [5] (Table II) was 150 nM each time.
As to `CCN(CC)CC(P(=O)(O)O)P(=O)(O)O` [Compound 13], the pest or weed control at 1000 g/ha in experiment [1] (setting [10]) was found to be 40%; in experiment [2] (setting [10]), 15%; in experiment [3] (setting [10]) it was 95%; in experiment [4] (setting [10]) it was 5%; in experiment [6] (setting [10]), 80%; in experiment [7] (setting [10]), 40%. Besides, the pest or weed control at 1000 g/ha in experiment [8] (setting [10]) was determined as 10%. In addition, the IC50 in experiment [5] (Table I) and in experiment [5] (Table II) was 240 nM in each case.
In the case of `CCCCNCC(P(=O)(O)O)P(=O)(O)O` [Compound 14], the pest or weed control at 1000 g/ha is 90% in experiment [1] (setting [10]); 20% in experiment [2] (setting [10]); 85% in experiment [3] (setting [10]); 15% in experiment [4] (setting [10]); 95% in experiment [6] (setting [10]); 70% in experiment [7] (setting [10]). For the same molecule, the pest or weed control at 1000 g/ha in experiment [8] (setting [10]) turned out to be 10%. In addition, the IC50 in experiment [5] (Table I) and in experiment [5] (Table II) was 347 nM throughout.

These data come from patent publication US5756423A, “Method of controlling plants by inhibition of farnesyl pyrophosphate synthase” (Zeneca Limited, priority 1997, dated 1998).
